Laboratory results published in patent publication US8951975B2, “ECT2 peptides and vaccines including the same” (OncoTherapy Science, Inc., priority 2010, dated 2015).
“Also recorded” adds a separate entry of the source. Ends that are not written are not given here.

Experiments:
peptide-pulsed T2 cells [1] = experiment: IFN-gamma ELISA assay of established CTL lines; assay type: cell-based, human; settings: against target cells pulsed with the corresponding peptide vs without peptide pulse
Procedure: CTLs were expanded in culture using the method similar to the one described by Riddell et al. (Walter E A et al., N Engl J Med 1995 Oct. 19, 333(16): 1038-44; Riddell S R et al., Nat Med 1996 February, 2(2): 216-23). A total of 5×10^4 CTLs were suspended in 25 ml of AIM-V/5% AS medium with 2 kinds of human B-lymphoblastoid cell lines, inactivated by Mitomycin C, in the presence of 40 ng/ml of anti-CD3 monoclonal antibody (Pharmingen). One day after initiating the cultures, 120 IU/ml of IL-2 were added to the cultures. The cultures were fed with fresh AIM-V/5% AS medium containing 30 IU/ml of IL-2 on days 5, 8 and 11 (Tanaka H et al., Br J Cancer 2001 Jan. 5, 84(1): 94-9; Umano Y et al., Br J Cancer 2001 Apr. 20, 84(8): 1052-7; Uchida N et al., Clin Cancer Res 2004 Dec. 15, 10(24): 8577-86; Suda T et al., Cancer Sci 2006 May, 97(5): 411-9; Watanabe T et al., Cancer Sci 2005 August, 96(8): 498-506).
(§1) Specifically, peptide-pulsed T2 (1×10^4/well) was prepared as stimulator cells. Cultured cells in 48 wells were used as responder cells. IFN-gamma ELISPOT assay and IFN-gamma ELISA assay were performed under manufacture procedure.

peptide-pulsed T2 cells [2] = experiment: IFN-gamma ELISPOT assay on CTLs induced with peptide-pulsed DCs; assay type: cell-based, human; settings: for IFN-gamma production of CTLs induced with the peptide (ELISPOT): against peptide-pulsed target cells, compared with control without peptide; for CTL inducibility / specific CTL activity of CTLs stimulated with the peptide: summary statement
From the text: Monocyte-derived dendritic cells (DCs) were used as antigen-presenting cells to induce cytotoxic T lymphocyte (CTL) responses against peptides presented on human leukocyte antigen (HLA). DCs were generated in vitro as described elsewhere (Nakahara S et al., Cancer Res 2003 Jul. 15, 63(14): 4112-8). Specifically, peripheral blood mononuclear cells (PBMCs) isolated from a normal volunteer (HLA-A*0201 positive) by Ficoll-Plaque (Pharmacia) solution were separated by adherence to a plastic tissue culture dish (Becton Dickinson) so as to enrich them as the monocyte fraction. The monocyte-enriched population was cultured in the presence of 1,000 U/ml of granulocyte-macrophage colony-stimulating factor (R&D System) and 1,000 U/ml of interleukin (IL)-4 (R&D System) in AIM-V Medium (Invitrogen) containing 2% heat-inactivated autologous serum (AS). After 7 days of culture, the cytokine-induced DCs were pulsed with 20 micro-g/ml of each of the synthesized peptides in the presence of 3 micro-g/ml of beta 2-microglobulin for 3 hrs at 37 degrees C. in AIM-V Medium. The generated cells appeared to express DC-associated molecules, such as CD80, CD83, CD86 and HLA class II, on their cell surfaces (data not shown). These peptide-pulsed DCs were then inactivated by X-irradiation (20 Gy) and mixed at a 1:20 ratio with autologous CD8+ T cells, obtained by positive selection with CD8 Positive Isolation Kit (Dynal). These cultures were set up in 48-well plates (Corning); each well contained 1.5×10^4 peptide-pulsed DCs, 3×10^5 CD8+ T cells and 10 ng/ml of IL-7 (R&D System) in 0.5 ml of AIM-V/2% AS medium. Three days later, these cultures were supplemented with IL-2 (CHIRON) to a final concentration of 20 IU/ml. On days 7 and 14, the T cells were further stimulated with the autologous peptide-pulsed DCs. The DCs were prepared each time by the same way described above. CTLs were tested against peptide-pulsed T2 cells after the 3rd round of peptide stimulation on day 21 (Tanaka H et al., Br J Cancer 2001 Jan. 5, 84(1): 94-9; Umano Y et al., Br J Cancer 2001 Apr. 20, 84(8): 1052-7; Uchida N et al., Clin Cancer Res 2004 Dec. 15, 10(24): 8577-86; Suda T et al., Cancer Sci 2006 May, 97(5): 411-9; Watanabe T et al., Cancer Sci 2005 August, 96(8): 498-506).
as §1

peptide-pulsed T2 cells [3] = experiment: IFN-gamma ELISA assay of CTL clones established by limiting dilution; assay type: cell-based, human; settings: against target cells pulsed with peptide vs not pulsed
Procedure: The dilutions were made to have 0.3, 1, and 3 CTLs/well in 96 round-bottomed micro titer plate (Nalge Nunc International). CTLs were cultured with 1×10^4 cells/well of 2 kinds of human B-lymphoblastoid cell lines, 30 ng/ml of anti-CD3 antibody, and 125 U/ml of IL-2 in a total of 150 micro-l/well of AIM-V Medium containing 5% AS. 50 micro-1/well of IL-2 were added to the medium 10 days later so to reach a final concentration of 125 U/ml IL-2. CTL activity was tested on the 14th day, and CTL clones were expanded using the same method as described above (Uchida N et al., Clin Cancer Res 2004 Dec. 15, 10(24): 8577-86; Suda T et al., Cancer Sci 2006 May, 97(5): 411-9; Watanabe T et al., Cancer Sci 2005 August, 96(8): 498-506).
as §1

[4] = tested on: COS7 cells transfected with ECT2 and HLA-A*0201; experiment: Specific CTL activity against target cells exogenously expressing ECT2 and HLA-A*0201; assay type: cell-based, African green monkey; settings: for Specific CTL activity against COS7 cells transfected with both ECT2 and HLA-A*0201: CTL clone (SEQ ID NO: 1) or CTL line (SEQ ID NO: 21) as effector cells; for Specific CTL activity against control COS7 cells expressing either HLA-A*0201 or ECT2: controls transfected with only one gene
From the text: The cDNA encoding an open reading frame of target genes or HLA-A*0201 was amplified by PCR. The PCR-amplified product was cloned into a vector. The plasmids were transfected into COS7, which is the target genes and HLA-A*0201-null cell line, using lipofectamine 2000 (Invitrogen) according to the manufacturer's recommended procedures. After 2 days from transfection, the transfected cells were harvested with versene (Invitrogen) and used as the target cells (5×10^4 cells/well) for CTL activity assay.
The established CTL lines and clones raised against these peptides was examined for the ability to recognize target cells that exogenously express ECT2 and HLA-A*0201 molecule. […] COS7 cells transfected with either full length of ECT2 or HLA-A*0201 were prepared as the controls.

In the case of FLFNDCLEI [SEQ ID NO: 3], the “IFN-gamma production of CTL lines stimulated with the peptide (ELISA)” value (peptide-pulsed T2 cells [1]) is reported as “potent IFN-gamma production”, the “IFN-gamma production of CTLs induced with the peptide (ELISPOT)” value (“IFN-gamma production of CTLs induced” for short) (peptide-pulsed T2 cells [2]) is reported as “potent IFN-gamma production” and the “CTL inducibility / specific CTL activity of CTLs stimulated with the peptide” value (shortened to “CTL inducibility / specific CTL activity”) (peptide-pulsed T2 cells [2]) is reported as “significant and specific CTL activity”. For the same substance, the “IFN-gamma production of CTL clones stimulated with the peptide (ELISA)” value (peptide-pulsed T2 cells [3]; listed as ECT2-A02-9-664) was “potent IFN-gamma production”.

With “NLLIgSTSYV (NLLIGSTSYV; not fully specified; printed as NLLIgSTSYV) [SEQ ID NO: 21]” the “Specific CTL activity against COS7 cells transfected with both ECT2 and HLA-A*0201” value ([4]; listed as ECT2-A02-10-33) was “potent CTL activity; also recorded: specific CTL activity”, the “Specific CTL activity against control COS7 cells expressing either HLA-A*0201 or ECT2” value [4] was “no significant specific CTL activity was detected” and the “IFN-gamma production of CTL lines stimulated with the peptide (ELISA)” value (peptide-pulsed T2 cells [1]) was “potent IFN-gamma production”. For the same substance, the “IFN-gamma production of CTLs induced” value (peptide-pulsed T2 cells [2]) was “potent IFN-gamma production” and the “CTL inducibility / specific CTL activity” value (peptide-pulsed T2 cells [2]) was “significant and specific CTL activity”.

With 21 (NLLIGSTSYV) [compound 21] the “CTL inducibility / specific CTL activity” value (peptide-pulsed T2 cells [2]) was “strong CTL inducibility”.

With LLIGSTSYV [SEQ ID NO: 1] the “Specific CTL activity against COS7 cells transfected with both ECT2 and HLA-A*0201” value ([4]; listed as ECT2-A02-9-34) was “potent CTL activity; also recorded: specific CTL activity”, the “Specific CTL activity against control COS7 cells expressing either HLA-A*0201 or ECT2” value [4] was “no significant specific CTL activity was detected” and the “IFN-gamma production of CTL lines stimulated with the peptide (ELISA)” value (peptide-pulsed T2 cells [1]) was “potent IFN-gamma production”. For the same substance, the “IFN-gamma production of CTLs induced” value (peptide-pulsed T2 cells [2]) was “potent IFN-gamma production”, the “CTL inducibility / specific CTL activity” value (peptide-pulsed T2 cells [2]) was “significant and specific CTL activity” and the “IFN-gamma production of CTL clones stimulated with the peptide (ELISA)” value (peptide-pulsed T2 cells [3]; listed as ECT2-A02-9-34) was “potent IFN-gamma production”.

For 3 (FLFNDCLEI) [compound 3], the “CTL inducibility / specific CTL activity” value (peptide-pulsed T2 cells [2]) was “strong CTL inducibility”.

In the case of 1 (LLIGSTSYV) [compound 1], the “CTL inducibility / specific CTL activity” value (peptide-pulsed T2 cells [2]) is reported as “strong CTL inducibility”.
